PMC9049331, “X-ray crystal structure of the Escherichia coli RadD DNA repair protein bound to ADP reveals a novel zinc ribbon domain” (PLoS ONE, 2022)

Target: T1, RadD (Escherichia coli, UniProt P33919)
T1 construct: open reading frame of E. coli radD from plasmid pEAW724, no tag mentioned, expressed in E. coli STL2669 (DE3)
T1 sequence (P33919 1-586): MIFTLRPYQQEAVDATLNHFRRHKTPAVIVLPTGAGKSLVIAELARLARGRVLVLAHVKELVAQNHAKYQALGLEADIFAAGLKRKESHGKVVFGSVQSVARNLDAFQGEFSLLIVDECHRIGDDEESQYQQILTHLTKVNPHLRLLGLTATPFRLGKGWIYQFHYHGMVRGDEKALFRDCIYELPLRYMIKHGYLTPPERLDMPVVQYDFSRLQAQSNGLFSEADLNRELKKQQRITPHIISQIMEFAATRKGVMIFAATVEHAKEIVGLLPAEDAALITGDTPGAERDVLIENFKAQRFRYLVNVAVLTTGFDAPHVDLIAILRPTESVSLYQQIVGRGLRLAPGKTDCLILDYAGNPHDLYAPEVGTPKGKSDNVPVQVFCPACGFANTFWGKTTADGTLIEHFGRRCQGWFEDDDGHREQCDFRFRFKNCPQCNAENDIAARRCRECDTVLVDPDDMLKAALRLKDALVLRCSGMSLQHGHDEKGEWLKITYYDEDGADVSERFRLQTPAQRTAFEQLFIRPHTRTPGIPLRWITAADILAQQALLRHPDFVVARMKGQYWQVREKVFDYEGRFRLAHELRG
Experiment: X-ray crystal structure, […] A
Assay type: binding
Conditions: crystallised with 1 mM ATPgammaS, ADP presumed from slow hydrolysis; Mg2+; pH 7.7; 4 C; ATPase site

Compound: Nc1ncnc2c1ncn2[C@@H]1O[C@H](COP(=O)(O)OP(=O)(O)O)[C@@H](O)[C@H]1O [ADP]
- X-ray crystal structure, 2.03 A: ADP was modelled in the RadD active site
